Source: patent publication US20120114745A1, “METHOD FOR TREATING OR AMELIORATING MUCOCUTANEOUS OR OCULAR TOXICITIES” (priority 2009, published 2012)

System: CCL2
Test: ELISA of CCL2 levels in the supernatant of keratinocyte cultures treated with EGFR inhibitor PD168393 and/or HDAC inhibitors
Assay type: cell-based
Conditions: then PD168393 24 hours (FIG. 1)
Description: Results are expressed as the mean of three independent experiments ±SD.

Row | SMILES | effect on PD168393-induced up-regulation of CCL2 levels (keratinocytes pre-treated with HDAC inhibitor 5 nM for 2 hours) | effect on PD168393-induced up-regulation of CCL2 levels (keratinocytes pre-treated with HDAC inhibitor for 2 hours)
1 | CC(/C=C/C(=O)NO)=C\[C@@H](C)C(=O)c1ccc(N(C)C)cc1 [trichostatin A] | suppressed | –
2 | CCCC(CCC)C(=O)O [valproic acid] | – | suppressed
